# PubChem BioAssay (NCI)
#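 The concentration for 50% growth inhibition is given as GI50. The concentration for full growth arrest is given as TGI.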
# Legend:
# Assay in all cases: NCI anticancer screen, dose series, 384-well format
# [1] = system: HOP-92 NSCLC
# [2] = system: UACC-62 melanoma
# [3] = system: SW-620 colon
# [4] = system: KM12 colon
# [5] = system: HL-60(TB) leukemia
# [6] = system: HT29 colon
# [7] = system: ACHN renal
# [8] = system: IGROV1 ovarian
# [9] = system: A549 NSCLC
# [10] = system: SK-MEL-2 melanoma
# [11] = system: CAKI-1 renal
# [12] = system: SNB-19 CNS
# [13] = system: NCI-H522 lung
# [14] = system: NCI-H322M lung
# [15] = system: TK-10 renal
# [16] = system: UACC-257 melanoma
# [17] = system: NCI/ADR-RES ovarian
# [18] = system: OVCAR-4 ovarian
# [19] = system: NCI-H226 lung
# [20] = system: OVCAR-3 ovarian
# [21] = system: K-562 leukemia
# [22] = system: RXF 393 renal
# [23] = system: OVCAR-8 ovarian
# [24] = system: HOP-62 NSCLC
# [25] = system: SF-539 CNS
# [26] = system: 786-0 renal
# [27] = system: U251 glioblastoma
# [28] = system: HCT-15 colon
# [29] = system: MDA-MB-468 breast
# [30] = system: SN12C renal
# [31] = system: NCI-H460 NSCLC
# [32] = system: MALME-3M melanoma
# [33] = system: OVCAR-5 ovarian
# [34] = system: SK-OV-3 ovarian
# [35] = system: RPMI-8226 leukemia
# [36] = system: UO-31 renal
# [37] = system: MDA-MB-231 breast
# [38] = system: SK-MEL-28 melanoma
# [39] = system: SF-268 CNS
# [40] = system: CCRF-CEM leukemia
# [41] = system: MDA-MB-435 melanoma
# [42] = system: NCI-H23 lung
# [43] = system: T-47D breast
# [44] = system: LOX IMVI melanoma
# [45] = system: DU-145 prostate
# [46] = system: HCC-2998 colon
# [47] = system: A498 renal
# [48] = system: BT-549 breast
# [49] = system: SK-MEL-5 melanoma
# [50] = system: HCT-116 colon
# [51] = system: PC-3 prostate
# [52] = system: MOLT-4 leukemia
# [53] = system: COLO 205 colon
# [54] = system: SF-295 CNS
# [55] = system: SR leukemia
# [56] = system: M14 melanoma
# [57] = system: MCF7 breast
structure (smiles),measurement,setting,value
COc1cc(N2CCC(N3CCN(C)CC3)CC2)ccc1Nc1ncnc(Nc2ccccc2S(=O)(=O)C(C)C)n1,GI50,[1],1.06 µM
same,TGI,[1],3.7 µM
same,GI50,[2],3.1 µM
same,TGI,[2],14.8 µM
same,GI50,[3],3.26 µM
same,TGI,[3],12.3 µM
same,GI50,[4],3.76 µM
same,TGI,[4],13.2 µM
same,GI50,[5],2.68 µM
same,TGI,[5],5.61 µM
same,GI50,[6],1.29 µM
same,TGI,[6],5.08 µM
same,GI50,[7],1.62 µM
same,TGI,[7],5.15 µM
same,GI50,[8],1.86 µM
same,TGI,[8],4.46 µM
same,GI50,[9],2.48 µM
same,TGI,[9],9.2 µM
same,GI50,[10],1.43 µM
same,TGI,[10],3.68 µM
same,GI50,[11],2.17 µM
same,TGI,[11],5.5 µM
same,GI50,[12],3.36 µM
same,TGI,[12],12.9 µM
same,GI50,[13],1.86 µM
same,TGI,[13],6.09 µM
same,GI50,[14],2.86 µM
same,TGI,[14],9.29 µM
same,GI50,[15],2.95 µM
same,TGI,[15],9 µM
same,GI50,[16],2.1 µM
same,TGI,[16],6.53 µM
same,GI50,[17],2.56 µM
same,TGI,[17],7.81 µM
same,GI50,[18],1.49 µM
same,TGI,[18],6.28 µM
same,GI50,[19],1.42 µM
same,TGI,[19],3.68 µM
same,GI50,[20],1.58 µM
same,TGI,[20],4.46 µM
same,GI50,[21],3.75 µM
same,TGI,[21],15.3 µM
same,GI50,[22],1.7 µM
same,TGI,[22],6.37 µM
same,GI50,[23],2.99 µM
same,TGI,[23],10.2 µM
same,GI50,[24],2.85 µM
same,TGI,[24],8.12 µM
same,GI50,[25],2.29 µM
same,TGI,[25],6.32 µM
same,GI50,[26],3.08 µM
same,TGI,[26],12.6 µM
same,GI50,[27],3.75 µM
same,TGI,[27],13.5 µM
same,GI50,[28],2.97 µM
same,TGI,[28],11.1 µM
same,GI50,[29],3.1 µM
same,TGI,[29],9.91 µM
same,GI50,[30],2.6 µM
same,TGI,[30],9.92 µM
same,GI50,[31],3.3 µM
same,TGI,[31],13.7 µM
same,GI50,[32],3.41 µM
same,TGI,[32],14.1 µM
same,GI50,[33],1.5 µM
same,TGI,[33],4.24 µM
same,GI50,[34],1.5 µM
same,TGI,[34],5.26 µM
same,GI50,[35],1.27 µM
same,TGI,[35],4.72 µM
same,GI50,[36],1.65 µM
same,TGI,[36],4.44 µM
same,GI50,[37],1.41 µM
same,TGI,[37],4.94 µM
same,GI50,[38],2.69 µM
same,TGI,[38],9.67 µM
same,GI50,[39],3.13 µM
same,TGI,[39],12.2 µM
same,GI50,[40],3.46 µM
same,TGI,[40],10.3 µM
same,GI50,[41],1.95 µM
same,TGI,[41],5.18 µM
same,GI50,[42],2.98 µM
same,TGI,[42],9.59 µM
same,GI50,[43],1.46 µM
same,TGI,[43],12.1 µM
same,GI50,[44],2.3 µM
same,TGI,[44],4.48 µM
same,GI50,[45],3.23 µM
same,TGI,[45],11.8 µM
same,GI50,[46],2.49 µM
same,TGI,[46],14.3 µM
same,GI50,[47],4.96 µM
same,TGI,[47],17 µM
same,GI50,[48],10.9 µM
same,TGI,[48],22.9 µM
same,GI50,[49],2.02 µM
same,TGI,[49],7.51 µM
same,GI50,[50],3.34 µM
same,TGI,[50],12.4 µM
same,GI50,[51],6.17 µM
same,TGI,[51],19.8 µM
same,GI50,[52],1.36 µM
same,TGI,[52],2.71 µM
same,GI50,[53],2.31 µM
same,TGI,[53],7.37 µM
same,GI50,[54],3.03 µM
same,TGI,[54],8.73 µM
same,GI50,[55],0.0183 µM
same,TGI,[55],0.0328 µM
same,GI50,[56],2.38 µM
same,TGI,[56],7.72 µM
same,GI50,[57],1.04 µM
same,TGI,[57],6.1 µM
